According to patent US20100267561A1, “HERBICIDAL PYRIDAZINONE DERIVATIVES” (priority 2007, published 2010):

Tests used:
Test in all cases: Test B pre-/postemergence plant response
Type in all cases: in vivo
[1] = tested on: eastern black (E.B.) nightshade (Solanum ptycanthum); conditions: Preemergence
In short: (§1)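 Preemergence and postemergence (plants 2-18 cm, 1- to 4-leaf stage) applications used test chemicals in a non-phytotoxic solvent with surfactant. Plants were held in a greenhouse 13 to 15 days, then rated visually against controls on a 0-100 scale (0 no effect, 100 complete control).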

[2] = tested on: green foxtail (Setaria viridis)
In short: as §1

[3] = tested on: johnsongrass (Sorghum halepense)
In short: as §1

[4] = tested on: pigweed (Amaranthus retroflexus)
In short: as §1

[5] = tested on: woolly cupgrass (Eriochloa villosa)
In short: as §1

[6] = tested on: catchweed bedstraw (Galium aparine); conditions: Preemergence, scale 0 to 100
In short: as §1

[7] = tested on: velvetleaf (Abutilon theophrasti)
In short: as §1

wild oat (Avena fatua) = tested on: wild oat (Avena fatua)
In short: as §1

[8] = tested on: downy bromegrass (Bromus tectorum)
In short: as §1

[9] = tested on: Italian ryegrass (Lolium multiflorum)
In short: as §1

[10] = tested on: yellow nutsedge (Cyperus esculentus)
In short: as §1

[11] = tested on: morningglory (Ipomoea coccinea)
In short: as §1

[12] = tested on: blackgrass (Alopecurus myosuroides)
In short: as §1

[13] = tested on: giant foxtail (Setaria faberii)
In short: as §1

[14] = Postemergence, 31 g ai/ha, scale 0 to 100, 0 no effect, 100 complete control
[15] = Postemergence, 62 g ai/ha, scale 0 to 100
[16] = Postemergence, 125 g ai/ha, scale 0 to 100
[17] = Postemergence, 250 g ai/ha, scale 0 to 100
[18] = Preemergence, 31 g ai/ha, 0 to 100 scale, 0 no effect, 100 complete control
[19] = Preemergence, 62 g ai/ha, scale 0 to 100
[20] = Preemergence, 125 g ai/ha, scale 0 to 100
[21] = Preemergence, 250 g ai/ha, scale 0 to 100

With “5-[3-(4-chlorophenyl)-5-methyl-1H-pyrazol-1-yl]-1,6-dihydro-1-methyl-6-oxo-4-pyridazinyl-1-methylethyl carbonate [Compound 7]” the “Plant response rating, Nightshade, E. B.” value ([1]; 31 g ai/ha, 0 to 100 scale, 0 no effect, 100 complete control) was 30, the “Plant response rating, Nightshade, E. B.” value ([1]; 62 g ai/ha, scale 0 to 100) was 30 and the “Plant response rating, Nightshade, E. B.” value ([1]; 125 g ai/ha, scale 0 to 100) was 100. The “Plant response rating, Nightshade, E. B.” value ([1]; 250 g ai/ha, scale 0 to 100) was 100, the “Plant response rating, Foxtail, Green” value [2, 14] was 75 and the “Plant response rating, Foxtail, Green” value [2, 15] was 100. The “Plant response rating, Foxtail, Green” value [2, 16] was 100, the “Plant response rating, Foxtail, Green” value [2, 17] was 100 and the “Plant response rating, Foxtail, Green” value [2, 18] was 100. The “Plant response rating, Foxtail, Green” value [2, 19] was 100, the “Plant response rating, Foxtail, Green” value [2, 20] was 100 and the “Plant response rating, Foxtail, Green” value [2, 21] was 100. For the same substance, the “Plant response rating, Johnsongrass” value [3, 16] was 0, the “Plant response rating, Johnsongrass” value [3, 17] was 0 and the “Plant response rating, Johnsongrass” value [3, 18] was 75. For the same substance, the “Plant response rating, Johnsongrass” value [3, 19] was 98, the “Plant response rating, Johnsongrass” value [3, 20] was 100 and the “Plant response rating, Johnsongrass” value [3, 21] was 100. For the same substance, the “Plant response rating, Pigweed” value [4, 14] was 0, the “Plant response rating, Pigweed” value [4, 15] was 0 and the “Plant response rating, Pigweed” value [4, 16] was 0. The “Plant response rating, Pigweed” value [4, 17] was 20, the “Plant response rating, Pigweed” value [4, 18] was 85 and the “Plant response rating, Pigweed” value [4, 19] was 100. The “Plant response rating, Pigweed” value [4, 20] was 100, the “Plant response rating, Cupgrass, Woolly” value [5, 14] was 100 and the “Plant response rating, Cupgrass, Woolly” value [5, 15] was 100. For the same substance, the “Plant response rating, Cupgrass, Woolly” value [5, 16] was 100, the “Plant response rating, Cupgrass, Woolly” value [5, 17] was 100 and the “Plant response rating, Cupgrass, Woolly” value [5, 18] was 70. For the same substance, the “Plant response rating, Cupgrass, Woolly” value [5, 19] was 70, the “Plant response rating, Cupgrass, Woolly” value [5, 20] was 85 and the “Plant response rating, Cupgrass, Woolly” value [5, 21] was 100. For the same substance, the “Plant response rating, Galium” value ([6]; 62 g ai/ha) was 0, the “Plant response rating, Galium” value ([6]; 125 g ai/ha) was 80 and the “Plant response rating, Galium” value ([6]; 250 g ai/ha) was 80. For the same substance, the “Plant response rating, Velvetleaf” value [7, 14] was 0, the “Plant response rating, Velvetleaf” value [7, 15] was 0 and the “Plant response rating, Velvetleaf” value [7, 16] was 0. The “Plant response rating, Velvetleaf” value [7, 17] was 0, the “Plant response rating, Velvetleaf” value [7, 18] was 0 and the “Plant response rating, Velvetleaf” value [7, 19] was 0. For the same substance, the “Plant response rating, Velvetleaf” value [7, 20] was 0, the “Plant response rating, Velvetleaf” value [7, 21] was 0 and the “Plant response rating, Oat, Wild” value (wild oat (Avena fatua); [14]) was 95. For the same substance, the “Plant response rating, Oat, Wild” value (wild oat (Avena fatua); [15]) was 95, the “Plant response rating, Oat, Wild” value (wild oat (Avena fatua); [16]) was 95 and the “Plant response rating, Oat, Wild” value (wild oat (Avena fatua); [17]) was 95. For the same substance, the “Plant response rating, Oat, Wild” value (wild oat (Avena fatua); [18]) was 0, the “Plant response rating, Oat, Wild” value (wild oat (Avena fatua); [19]) was 70 and the “Plant response rating, Oat, Wild” value (wild oat (Avena fatua); [20]) was 80. The “Plant response rating, Oat, Wild” value (wild oat (Avena fatua); [21]) was 85, the “Plant response rating, Bromegrass, Downy” value [8, 14] was 0 and the “Plant response rating, Bromegrass, Downy” value [8, 15] was 0. The “Plant response rating, Bromegrass, Downy” value [8, 16] was 0, the “Plant response rating, Bromegrass, Downy” value [8, 17] was 0 and the “Plant response rating, Bromegrass, Downy” value [8, 18] was 35. The “Plant response rating, Bromegrass, Downy” value [8, 19] was 35, the “Plant response rating, Bromegrass, Downy” value [8, 20] was 60 and the “Plant response rating, Bromegrass, Downy” value ([8]; Preemergence, 250 g ai/ha, scale 0 to 100 (0 no effect, 100 complete control)) was 60. The “Plant response rating, Ryegrass, Italian” value [9, 14] was 95, the “Plant response rating, Ryegrass, Italian” value [9, 15] was 100 and the “Plant response rating, Ryegrass, Italian” value [9, 16] was 100. The “Plant response rating, Ryegrass, Italian” value [9, 17] was 100, the “Plant response rating, Ryegrass, Italian” value [9, 18] was 90 and the “Plant response rating, Ryegrass, Italian” value [9, 19] was 100. For the same substance, the “Plant response rating, Ryegrass, Italian” value [9, 20] was 100, the “Plant response rating, Ryegrass, Italian” value [9, 21] was 100 and the “Plant response rating, Nutsedge, Yellow” value [10, 14] was 0. For the same substance, the “Plant response rating, Nutsedge, Yellow” value [10, 15] was 0, the “Plant response rating, Nutsedge, Yellow” value [10, 16] was 0 and the “Plant response rating, Nutsedge, Yellow” value [10, 17] was 0. The “Plant response rating, Nutsedge, Yellow” value [10, 18] was 0, the “Plant response rating, Nutsedge, Yellow” value [10, 19] was 0 and the “Plant response rating, Nutsedge, Yellow” value [10, 20] was 0. For the same substance, the “Plant response rating, Nutsedge, Yellow” value [10, 21] was 0, the “Plant response rating, Morningglory” value [11, 14] was 0 and the “Plant response rating, Morningglory” value [11, 15] was 0. The “Plant response rating, Morningglory” value [11, 16] was 0, the “Plant response rating, Morningglory” value [11, 17] was 0 and the “Plant response rating, Morningglory” value [11, 18] was 0. The “Plant response rating, Morningglory” value [11, 19] was 0, the “Plant response rating, Morningglory” value [11, 20] was 0 and the “Plant response rating, Morningglory” value [11, 21] was 0. The “Blackgrass plant response rating” value ([12]; 250 g ai/ha, preemergence, 0-100 scale) was 100, the “Plant response rating, Blackgrass” value [12, 14] was 85 and the “Plant response rating, Blackgrass” value [12, 15] was 90. For the same substance, the “Plant response rating, Blackgrass” value [12, 16] was 100, the “Plant response rating, Blackgrass” value [12, 17] was 100 and the “Plant response rating, Blackgrass” value [12, 18] was 70. The “Plant response rating, Blackgrass” value [12, 19] was 85, the “Plant response rating, Blackgrass” value [12, 20] was 100 and the “Plant response rating, Foxtail, Giant” value [13, 14] was 98. The “Plant response rating, Foxtail, Giant” value [13, 15] was 100, the “Plant response rating, Foxtail, Giant” value [13, 16] was 100 and the “Plant response rating, Foxtail, Giant” value [13, 17] was 100. For the same substance, the “Plant response rating, Foxtail, Giant” value [13, 18] was 100, the “Plant response rating, Foxtail, Giant” value [13, 19] was 100 and the “Plant response rating, Foxtail, Giant” value [13, 20] was 100. For the same substance, the “Plant response rating, Foxtail, Giant” value [13, 21] was 100.
